Data set [1] has as its target T1, catalytic domain of human stromelysin (Hsln) (Homo sapiens, UniProt P08254).
T1 construct: The catalytic domain of human stromelysin (Hsln) was obtained by expression and purification of a C-terminally truncated prostromelysin-1; made in house; host or cells: E. coli BL21
The experiment in a line: Fluorometric MCA-peptide hydrolysis assay, stromelysin (Hsln). In kind it is biochemical. To be noted: apparent Ki; 10 μM MCA peptide substrate, 37° C., pH 7.5; read-out: Hsln (Ki,app). The procedure:
The catalytic domain of human stromelysin (Hsln) was obtained by expression and purification of a C-terminally truncated prostromelysin-1 from E. coli host BL21 (see Marcy et al. Biochem., 1991, 30, 6476). The subsequent activation of the mature form (Hsln) was completed with 2 mM APMA for 1 hour at 37° C., followed by separation using a sizing column.
(§1) Assays were performed in assay buffer (50 mM Tricine pH 7.5, 200 mM sodium chloride, 10 mM calcium chloride, 0.5 mM zinc acetate containing 2% dimethyl sulfoxide (DMSO)) once the substrate and inhibitor were diluted into it. Stock solutions of inhibitors were prepared in 100% DMSO. Stock solutions of the substrate were prepared in 100% DMSO at a concentration of 6 mM.
(§2) The assay method was based on the hydrolysis of MCA-Pro-Leu-Gly-Leu-DPA-Ala-Arg-NH2 (American Peptide Co.) at 37° C. (see Knight, C. G. et al., FEBS, 1992, 296, 263-266). The fluorescence changes were monitored with a Perkin-Elmer LS-50B fluorimeter using an excitation wavelength of 328 nm and an emission wavelength of 393 nm. The substrate concentration used in the assays was 10 μM. The inhibitor was diluted into the assays from a solution in 100% DMSO, and controls substituted an equal volume of DMSO so that the final DMSO concentration from inhibitor and substrate dilution in all assays was 2%. […] Proper determination of steady-state rates of substrate cleavage required assay lengths of 60 minutes to allow for complete equilibration of the enzyme-inhibitor complex.
(§3) The Km for the MCA peptide substrate with the matrix metalloproteinases is quite high and exceeds its solubility under assay conditions. Consequently, the apparent Ki (Ki,app) was determined to describe the strength of inhibition. However, in this case, Ki,app would be essentially equal to Ki since [S]<<Km. For the determination of Ki,app, the concentration of the inhibitor was varied at a constant and low concentration of substrate and the steady-state rates of fluorescence change determined. In most cases absorptive quench due to the presence of ligand was not observed. For slow-binding inhibitors, onset of inhibition curves were collected for at least 45 minutes so that equilibrium was established. Steady-state rates of fluorescence change were obtained by fitting a curve to an equation for a single exponential decay containing a linear phase. The fitted value of the linear phase was taken as the steady-state rate. The steady-state rates were fitted to the Michaelis equation describing competitive inhibition by non-linear methods. Data resulting from tight-binding inhibition was analyzed, and Ki,app determined by fitting the data to the tight-binding equation of Morrison (Biochem. Biophys. Acta, vol. 185, pp. 269-286 (1969)) by non-linear methods.

The next data set deals with T2, Human matrilysin (Matr) (Homo sapiens, UniProt P09237).
T2 construct: the catalytic domain was liberated by treatment with 2 mM APMA at 37° C. for 2 hours; ubiquitin (cleaved yes); made in house; host or cells: E. coli
T2 sequence (P09237 95-267): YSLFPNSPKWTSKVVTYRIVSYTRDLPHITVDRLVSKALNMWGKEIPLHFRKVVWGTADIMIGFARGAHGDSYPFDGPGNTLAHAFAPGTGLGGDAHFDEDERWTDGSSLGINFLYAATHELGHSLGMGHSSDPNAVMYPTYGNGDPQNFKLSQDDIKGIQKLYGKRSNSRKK
The data set can be described thus: Fluorometric MCA-peptide hydrolysis assay, matrilysin (Matr). It is filed as biochemical. To be noted: apparent Ki; 10 μM MCA peptide substrate, 37° C., pH 7.5; read-out: Matr (Ki,app). The procedure:
Human matrilysin (Matr) was expressed in E. coli as a fusion protein with ubiquitin. After purification of the matrilysin/ubiquitin fusion from inclusion bodies, the catalytic domain was liberated by treatment with 2 mM APMA at 37° C. for 2 hours. Final purification was complete using copper chelate chromatography.
as §1, §2, §3

Data set [2] deals with T3, human collagenase-3 (Coll3) (Homo sapiens, UniProt P45452).
T3 construct: the catalytic domain was liberated by treatment with 2 mM APMA at room temperature overnight; ubiquitin (N, cleaved yes); made in house; host or cells: E. coli
The data set can be described thus: Fluorometric MCA-peptide hydrolysis assay, collagenase-3 (Coll3). In kind it is biochemical. To be noted: apparent Ki; 10 μM MCA peptide substrate, 37° C., pH 7.5; read-out: Coll3 (Ki,app). The procedure:
The propeptide and catalytic domain of human collagenase-3 (Coll3) was expressed in E. coli as an N-terminal fusion protein with ubiquitin. After purification of the fusion from inclusion bodies, the catalytic domain was liberated by treatment with 2 mM APMA at room temperature overnight. Final purification was completed using copper chelate chromatography.
as §1, §2
as §3, with “In most cases absorptive quench due to the presence of ligand was not observed.” left out

Data set [3] addresses T4, human progelatinase A (GelA), catalytic and fibronectin-like portion (Homo sapiens, UniProt P08253).
T4 construct: The catalytic and fibronectin-like portion of human progelatinase A (GelA) was expressed as a fusion protein with ubiquitin; ubiquitin; made in house; host or cells: E. coli
The experiment in a line: Fluorometric MCA-peptide hydrolysis assay, gelatinase A (GelA). To be noted: apparent Ki; 10 μM MCA peptide substrate, 37° C., pH 7.5. In kind it is biochemical. The procedure:
The catalytic and fibronectin-like portion of human progelatinase A (GelA) was expressed as a fusion protein with ubiquitin in E. Coli. Assays were carried out on autocatalytically activated material.
as §1, §2, §3

Structures can show the parent of a compound that is named as a salt. Bounds are passed on as bounds.

T1 sequence (P08254 100-272 limits assumed): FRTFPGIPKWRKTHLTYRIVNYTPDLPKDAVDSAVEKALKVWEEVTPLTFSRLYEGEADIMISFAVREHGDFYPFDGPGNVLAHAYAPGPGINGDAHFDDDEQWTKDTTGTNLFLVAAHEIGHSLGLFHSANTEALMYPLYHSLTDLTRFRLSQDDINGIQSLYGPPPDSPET
T4 sequence (P08253 110-465 limits assumed): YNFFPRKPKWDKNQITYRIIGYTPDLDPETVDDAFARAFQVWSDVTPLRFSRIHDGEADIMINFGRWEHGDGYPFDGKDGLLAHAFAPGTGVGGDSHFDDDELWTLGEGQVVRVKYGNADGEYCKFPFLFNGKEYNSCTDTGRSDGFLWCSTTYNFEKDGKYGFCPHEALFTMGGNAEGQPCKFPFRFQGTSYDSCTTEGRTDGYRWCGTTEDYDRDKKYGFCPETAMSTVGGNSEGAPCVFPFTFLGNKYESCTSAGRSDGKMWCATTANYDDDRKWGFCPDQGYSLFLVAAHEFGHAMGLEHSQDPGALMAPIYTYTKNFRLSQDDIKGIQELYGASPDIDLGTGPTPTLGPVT

In general, melting point refers to the temperature, or range, at which the solid turns liquid. In the case of `CC(C)(C)[C@H](NC(=O)[C@@H](CC(=O)O)n1ccc(-c2ccc(-c3ccc(C#N)cc3)cc2)c1)C(=O)Nc1ccncc1` (as salt: salt) [Example 5(d), 3(R)-[3-(4′-Cyanobiphenyl-4-yl)-1H-pyrrol-1-yl]-N-[2,2-dimethyl-1(S)-(pyridin-4-ylcarbamoyl)propyl]succinamic Acid Formate Salt], the melting point is 134 to 136 °C.
For the compound `CC(C)(C)[C@@H](CO)NC(=O)C(CC(=O)O)n1cnc(-c2ccc(-c3ccccc3)cc2)c1` (mixture of isomers) [Example 18(b), 3(RS)-(3-Biphenyl-4-yl-1H-imidazol-1-yl)-N-(2,2-dimethyl-1(S)-hydroxymethylpropyl)succinamic Acid], the melting point was in the range of 145 to 150 °C. For the same compound, the Ki in data set [1] was determined as 3000 nM. Also, at Human matrilysin (Matr), the Ki is over 100000 nM.
In turn, `CC(C)(O)C(CO)NC(=O)[C@@H](CC(=O)O)n1ccc(-c2ccc(-c3ccccc3)cc2)c1` (stereo in doubt) [Example 1(i), 3(R)-[3-(Biphenyl-4-yl)-1H-pyrrol-1-yl]-N-[2-hydroxy-1(S)-(hydroxymethyl)-2-methylpropyl]succinamic Acid] returned a melting point of 150 to 152 °C. In data set [2], the Ki worked out at 89.6 nM. Further, the GelA (Ki,app) in data set [3] came to 8 nM. The Ki in data set [1] turned out to be 113 nM.
Turning to `CC(C)(C)[C@H](NC(=O)C(CC(=O)O)c1ccsc1)C(=O)Nc1ccncc1` (stereo in doubt) [Example 17(c), N-[2,2-Dimethyl-1(S)-(pyridin-4-ylcarbamoyl)-propyl]-3(R)-thien-3-yl-succinamic Acid], the melting point is 205 °C (dec.). The GelA (Ki,app) in data set [3] amounted to 157 nM. Further, the Ki in data set [1] was found to be 935 nM. In addition, the Ki on Human matrilysin (Matr) amounted to 156 nM.
For `O=C(O)C[C@H](C(=O)N[C@H](CO)Cc1ccccc1)n1ccc(-c2ccc(-c3ccccc3)cc2)c1` [1(a), N-(1(S)-Benzyl-2-hydroxyethyl)-3(R)-[3-(biphenyl-4-yl)-1H-pyrrol-1-yl]succinamic Acid], the Ki is 30 nM in data set [2], 65 nM in data set [1] and 1000 nM at Human matrilysin (Matr). The GelA (Ki,app) in data set [3] amounted to 5.4 nM.
`CCCc1ccc(-c2ccn([C@H](CC(=O)O)C(=O)N[C@H](C(=O)NC)C(C)(C)C)c2)cc1` [Example 1(j), N-[2,2-Dimethyl-1(S)-(methylcarbamoyl)propyl]-3(R)-[3-(4-propylphenyl)-1H-pyrrol-1-yl]succinamic Acid] had a melting point of 104 to 106 °C. In addition, the Ki in data set [2] was determined as 9.43 nM. The GelA (Ki,app) in data set [3] worked out at 1.43 nM. Moreover, in data set [1], the Ki was 133 nM.
Turning to `CC(=O)[C@H](CC(C)C)NC(=O)[C@@H](CC(=O)O)n1ccc(-c2ccc(-c3ccccc3)cc2)c1` [Example 2, N-(1(S)-Acetyl-3-methylbutyl)-3(R)-[3-(biphenyl-4-yl)-1H-pyrrol-1-yl)succinamic Acid], the Ki is 123 nM in data set [2], 89 nM in data set [1] and 400 nM at Human matrilysin (Matr). The GelA (Ki,app) in data set [3] was found to be 6.2 nM.
`CC(C)(C)[C@@H](CO)NC(=O)[C@@H](CC(=O)O)n1ccc(-c2ccc(-c3ccc(C(N)=O)cc3)cc2)c1` [Example 4(c), 3(R)-[3-(4′-Carbamoylbiphenyl-4-yl)-1H-pyrrol-1-yl]-N-(1(S)-hydroxymethyl-2,2-dimethyl-propyl)succinamic Acid] yielded a melting point of 192 to 194 °C. Also, the GelA (Ki,app) in data set [3] was 7.2 nM. Besides, the Ki in data set [1] is 64 nM. In addition, the Ki at Human matrilysin (Matr) came to 2530 nM.
Take `CC(C)C[C@H](NC(=O)[C@@H](CC(=O)O)n1ccc(-c2ccc(-c3ccncc3)cc2)c1)c1ncc[nH]1.O=CO` [Example 7(c), N-[1(S)-(1H-Imidazol-2-yl)-3-methylbutyl]-3(R)-[3-[4-(pyridin-4-yl)phenyl]-1H-pyrrol-1-yl]succinamic Acid Formate Salt]: the figures for the Ki (in data set [2]; in data set [1]; on Human matrilysin (Matr)) were 1.3 nM, 26 nM and 5330 nM, respectively. The GelA (Ki,app) in data set [3] was found to be 0.055 nM.
`O=C(C[C@H](C(=O)N[C@H]1Cc2cn(c3ccccc23)CCCCCCNC1=O)n1cccc1)NO` [Example 8(c), N ^4Hydroxy-N^1-(9-oxo-1,8-diaza-tricyclo[10.6.1.0^13,18]nonadeca-12(19),13,15,17-tetraen-10S-yl)-3(R)-1H-(pyrrol-1-yl)succinamide]: the melting point lay within 158 to 165 °C.
With `CCC[C@H](C(=O)O)[C@H](C(=O)N[C@H](CO)Cc1ccccc1)n1ccc(-c2ccc(-c3ccccc3)cc2)c1` [Example 10(a), 2S-[1R-(1(S)-Benzyl-2-hydroxyethylcarbamoyl)-(3-biphenyl-4-yl-1H-pyrrol-1-yl)-methyl]-pentanoic Acid], the melting point is 179 to 181 °C (dec.). Moreover, in data set [2], the Ki stood at 50 nM. In addition, in data set [3], the GelA (Ki,app) turned out to be 3.3 nM. Moreover, the Ki at Human matrilysin (Matr) was 617 nM.
For `CC(C)C[C@H](NC(=O)[C@@H](CC(=O)O)c1ccn(-c2ccc(-c3ccc(C#N)cc3)cc2)c1)c1ncc[nH]1` [Example 14(c), 3(S)-[1-(4′-Cyanobiphenyl-4-yl)-1H-pyrrol-3-yl]-N-[1(S)-(1H-imidazol-2-yl)-3-methylbutyl]succinamic Acid], the melting point was 206 to 210 °C (dec.). The GelA (Ki,app) in data set [3] is 0.044 nM. Further, the Ki in data set [1] is 17.7 nM.
In turn, `O=C(O)C[C@H](C(=O)N[C@H](CO)Cc1ccccc1)n1cc(-c2ccc(-c3ccccc3)cc2)cn1` [Example 16, N-(1(S)-Benzyl-2-hydroxyethyl)-3(R)-[4-(biphenyl-4-yl)-pyrazol-1-yl]succinamic Acid] displayed a melting point of 154 to 159 °C. Also, the GelA (Ki,app) in data set [3] amounted to 81 nM. Also, the Ki in data set [1] came to 1500 nM. For the same compound, on Human matrilysin (Matr), the Ki was determined as 63000 nM.
